# Measurements taken from patent US10770169B2, “Method of providing a treatment to a subject based on a dynamic pathway map” (THE REGENTS OF THE UNIVERSITY OF CALIFORNIA, priority 2010, dated 2020).
# Where two headings read alike, the source gives them in different places.
# Tested on: panel of 55 breast cancer cell lines
# Assay: Cell growth inhibition assay (Cell Titer Glo, 72 h, 9 doses; GI50, TGI, LC50)
# Format: cell-based, human
# Conditions: Homo sapiens, read-out: GI50 (converted)
# [1] = 600MPE cell line, censored GI50 values
# [2] = AU565, AU565 cell line, censored GI50 values
# [3] = BT-20, BT20 cell line, censored GI50 values
# [4] = BT-474, BT474 cell line, censored GI50 values
# [5] = BT-483, BT483 cell line, censored GI50 values
# [6] = BT-549, BT549 cell line, censored GI50 values
# [7] = CAMA-1, CAMA1 cell line, censored GI50 values
# [8] = HCC38, HCC38 cell line, censored GI50 values
# [9] = HCC70, HCC70 cell line, censored GI50 values
# [10] = HCC202, HCC202 cell line, censored GI50 values
# [11] = HCC1143, HCC1143 cell line, censored GI50 values
# [12] = HCC1187, HCC1187 cell line, censored GI50 values
# [13] = HCC1395, HCC1395 cell line, censored GI50 values
# [14] = HCC1419, HCC1419 cell line, censored GI50 values
# [15] = HCC1428, HCC1428 cell line, censored GI50 values
# [16] = HCC1500, HCC1500 cell line, censored GI50 values
# [17] = HCC1806, HCC1806 cell line, censored GI50 values
# [18] = HCC1937, HCC1937 cell line, censored GI50 values
# [19] = HCC1954, HCC1954 cell line, censored GI50 values
# [20] = HCC2185 cell line, censored GI50 values
# [21] = HCC3153 cell line, censored GI50 values
# [22] = MCF7, MCF7 cell line, censored GI50 values
# [23] = MDA-MB-134-VI, MDAMB134VI cell line, censored GI50 values
# [24] = MDA-MB-157, MDAMB157 cell line, censored GI50 values
# [25] = MDA-MB-175-VII, MDAMB175VII cell line, censored GI50 values
# [26] = MDA-MB-231, MDAMB231 cell line, censored GI50 values
# [27] = MDA-MB-361, MDAMB361 cell line, censored GI50 values
# [28] = MDA-MB-415, MDAMB415 cell line, censored GI50 values
# [29] = MDA-MB-436, MDAMB436 cell line, censored GI50 values
# [30] = MDA-MB-468, MDAMB468 cell line, censored GI50 values
# [31] = SK-BR-3, SKBR3 cell line, censored GI50 values
# [32] = SUM52PE, SUM52PE cell line, censored GI50 values
# [33] = SUM149PT, SUM149PT cell line, censored GI50 values
# [34] = SUM185PE, SUM185PE cell line, censored GI50 values
# [35] = SUM225CWN, SUM225CWN cell line, censored GI50 values
# [36] = SUM1315MO2, SUM1315MO2 cell line, censored GI50 values
# [37] = SUM-159-PT, SUM159PT cell line, censored GI50 values
# [38] = T47D, T47D cell line, censored GI50 values
# [39] = UACC-893, UACC893 cell line, censored GI50 values
# [40] = ZR-75-1, ZR751 cell line, censored GI50 values
compound,measurement,setting,value
CNC(=O)c1cc(Oc2ccc(NC(=O)Nc3ccc(Cl)c(C(F)(F)F)c3)cc2)ccn1 [Sorafenib],GI50,[1],45.7 µM
same,GI50,[2],178 µM
same,GI50,"AU565, cell line AU565",178 µM
same,GI50,[3],63.1 µM
same,GI50,"BT-20, cell line BT20",63.1 µM
same,GI50,[4],100 µM
same,GI50,"BT-474, cell line BT474",100 µM
same,GI50,[5],11.7 µM
same,GI50,"BT-483, cell line BT483",11.7 µM
same,GI50,[6],120 µM
same,GI50,"BT-549, cell line BT549",120 µM
same,GI50,[7],95.5 µM
same,GI50,"CAMA-1, cell line CAMA1",95.5 µM
same,GI50,[8],87.1 µM
same,GI50,"HCC38, cell line HCC38",87.1 µM
same,GI50,[9],35.5 µM
same,GI50,"HCC70, cell line HCC70",35.5 µM
same,GI50,[10],72.4 µM
same,GI50,"HCC202, cell line HCC202",72.4 µM
same,GI50,[11],58.9 µM
same,GI50,"HCC1143, cell line HCC1143",58.9 µM
same,GI50,[12],32.4 µM
same,GI50,"HCC1187, cell line HCC1187",32.4 µM
same,GI50,[13],47.9 µM
same,GI50,"HCC1395, cell line HCC1395",47.9 µM
same,GI50,[14],417 µM
same,GI50,"HCC1419, cell line HCC1419",417 µM
same,GI50,[15],45.7 µM
same,GI50,"HCC1428, cell line HCC1428",45.7 µM
same,GI50,[16],178 µM
same,GI50,"HCC1500, cell line HCC1500",178 µM
same,GI50,[17],148 µM
same,GI50,"HCC1806, cell line HCC1806",148 µM
same,GI50,[18],513 µM
same,GI50,"HCC1937, cell line HCC1937",513 µM
same,GI50,[19],55 µM
same,GI50,"HCC1954, cell line HCC1954",55 µM
same,GI50,[20],14.8 µM
same,GI50,[21],120 µM
same,GI50,[22],64.6 µM
same,GI50,"MCF7, cell line MCF7",64.6 µM
same,GI50,[23],28.8 µM
same,GI50,[24],240 µM
same,GI50,[25],81.3 µM
same,GI50,[26],89.1 µM
same,GI50,[27],60.3 µM
same,GI50,[28],95.5 µM
same,GI50,[29],51.3 µM
same,GI50,[30],158 µM
same,GI50,[31],70.8 µM
same,GI50,[32],1.7 µM
same,GI50,[33],15.8 µM
same,GI50,[34],1.48 µM
same,GI50,[35],40.7 µM
same,GI50,[36],186 µM
same,GI50,[37],21.9 µM
same,GI50,[38],25.7 µM
same,GI50,[39],331 µM
same,GI50,[40],45.7 µM
same,GI50,cell line 600MPE,45.7 µM
same,GI50,cell line HCC2185,14.8 µM
same,GI50,cell line HCC3153,120 µM
CCN(CC)CCNC(=O)c1c(C)[nH]c(/C=C2\C(=O)Nc3ccc(F)cc32)c1C [Sunitinib Malate],GI50,[1],4.27 µM
same,GI50,[2],3.8 µM
same,GI50,"AU565, cell line AU565",3.8 µM
same,GI50,[3],16.6 µM
same,GI50,"BT-20, cell line BT20",16.6 µM
same,GI50,[4],17 µM
same,GI50,"BT-474, cell line BT474",17 µM
same,GI50,[5],18.6 µM
same,GI50,"BT-483, cell line BT483",18.6 µM
same,GI50,[6],5.13 µM
same,GI50,"BT-549, cell line BT549",5.13 µM
same,GI50,[7],8.71 µM
same,GI50,"CAMA-1, cell line CAMA1",8.71 µM
same,GI50,[8],5.75 µM
same,GI50,"HCC38, cell line HCC38",5.75 µM
same,GI50,[9],2.51 µM
same,GI50,"HCC70, cell line HCC70",2.51 µM
same,GI50,[10],9.33 µM
same,GI50,"HCC202, cell line HCC202",9.33 µM
same,GI50,[11],6.92 µM
same,GI50,"HCC1143, cell line HCC1143",6.92 µM
same,GI50,[12],5.01 µM
same,GI50,"HCC1187, cell line HCC1187",5.01 µM
same,GI50,[13],4.68 µM
same,GI50,"HCC1395, cell line HCC1395",4.68 µM
same,GI50,[14],17.8 µM
same,GI50,"HCC1419, cell line HCC1419",17.8 µM
same,GI50,[15],5.13 µM
same,GI50,"HCC1428, cell line HCC1428",5.13 µM
same,GI50,[16],6.46 µM
same,GI50,"HCC1500, cell line HCC1500",6.46 µM
same,GI50,[17],5.37 µM
same,GI50,"HCC1806, cell line HCC1806",5.37 µM
same,GI50,[18],6.92 µM
same,GI50,"HCC1937, cell line HCC1937",6.92 µM
same,GI50,[19],5.62 µM
same,GI50,"HCC1954, cell line HCC1954",5.62 µM
same,GI50,[20],20.4 µM
same,GI50,[21],11 µM
same,GI50,"LY2 cell line, censored GI50 values",6.46 µM
same,GI50,[22],5.89 µM
same,GI50,"MCF7, cell line MCF7",5.89 µM
same,GI50,[23],10.7 µM
same,GI50,[24],6.31 µM
same,GI50,[25],5.5 µM
same,GI50,[26],3.63 µM
same,GI50,[27],11.7 µM
same,GI50,[28],5.62 µM
same,GI50,[29],11.2 µM
same,GI50,"MDA-MB-453, MDAMB453 cell line, censored GI50 values",4.17 µM
same,GI50,[30],4.47 µM
same,GI50,[31],6.76 µM
same,GI50,[32],1.15 µM
same,GI50,[33],2.69 µM
same,GI50,[34],1.05 µM
same,GI50,[35],6.31 µM
same,GI50,[36],7.41 µM
same,GI50,[37],1.55 µM
same,GI50,[38],8.32 µM
same,GI50,[39],0.871 µM
same,GI50,[40],13.2 µM
same,GI50,"ZR-75B, ZR75B cell line, censored GI50 values",7.59 µM
same,GI50,cell line 600MPE,4.27 µM
same,GI50,cell line HCC2185,20.4 µM
same,GI50,cell line HCC3153,11 µM
same,GI50,cell line LY2,6.46 µM
